Experimental data taken from PMC10709440, “High-throughput ligand profile characterization in novel cell lines expressing seven heterologous insect olfactory receptors for the detection of volatile plant biomarkers” (Scientific Reports, 2023).
Read-outs that look alike come from different tables or passages of the source.

Legend:
Drosophila OR49b = target: T1, Drosophila OR49b (Drosophila melanogaster, UniProt Q9V6H2); assay: cell-based; conditions: for OR49b response (VUAA1-normalized) at 1 μM / OR49b response (VUAA1-normalized) at 10 μM / OR49b response (VUAA1-normalized) at 100 μM / Average response: OR49b cell line; for OR49b response (VUAA1-normalized) at 1 μM: VOC concentration 1 μM; for OR49b response (VUAA1-normalized) at 10 μM: VOC concentration 10 μM; for OR49b response (VUAA1-normalized) at 100 μM: VOC concentration 100 μM; for Average response: mean of biological replicates; for DF norm AVERAGE OR49b: threshold 0.05, below shown as 0
T1 construct: expressed in transfected cells
T1 sequence (Q9V6H2 1-375): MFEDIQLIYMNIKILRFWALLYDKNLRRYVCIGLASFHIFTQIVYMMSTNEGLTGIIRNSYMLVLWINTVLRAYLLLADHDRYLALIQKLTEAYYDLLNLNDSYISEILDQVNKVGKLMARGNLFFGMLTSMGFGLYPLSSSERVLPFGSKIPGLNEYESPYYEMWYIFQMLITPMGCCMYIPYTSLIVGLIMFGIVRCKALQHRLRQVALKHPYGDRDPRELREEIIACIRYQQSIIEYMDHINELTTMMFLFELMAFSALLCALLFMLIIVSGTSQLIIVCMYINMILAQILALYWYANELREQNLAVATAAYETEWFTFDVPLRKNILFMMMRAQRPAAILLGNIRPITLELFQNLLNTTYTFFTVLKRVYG
T1 sequence (Q9VNB5 1-486 partner): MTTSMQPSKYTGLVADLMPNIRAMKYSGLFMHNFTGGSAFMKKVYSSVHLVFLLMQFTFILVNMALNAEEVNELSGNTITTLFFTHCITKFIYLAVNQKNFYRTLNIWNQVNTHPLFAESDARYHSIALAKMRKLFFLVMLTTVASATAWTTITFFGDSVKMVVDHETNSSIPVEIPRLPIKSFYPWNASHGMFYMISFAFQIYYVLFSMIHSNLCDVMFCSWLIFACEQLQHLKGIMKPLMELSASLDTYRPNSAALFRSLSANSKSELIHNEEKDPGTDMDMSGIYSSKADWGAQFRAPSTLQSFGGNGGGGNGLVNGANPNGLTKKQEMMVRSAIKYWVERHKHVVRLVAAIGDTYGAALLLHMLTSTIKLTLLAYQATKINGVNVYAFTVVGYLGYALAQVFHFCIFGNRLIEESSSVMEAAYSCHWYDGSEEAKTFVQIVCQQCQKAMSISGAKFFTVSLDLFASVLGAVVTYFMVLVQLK
Outline: (§1)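 Responses are VUAA1-normalized ΔF: each VOC-evoked calcium signal, (FMAX−F0)/F0 over 30 s after injection, divided by the same line's mean 50 µM VUAA1 response. Cells were doxycycline-induced HEK293 with GCaMP6 and the cognate Drosophila OR, in HEPES buffer pH 7.3; ligands tested 0.01–100 μM.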

Drosophila OR98a = target: T2, Drosophila OR98a (Drosophila melanogaster, UniProt Q9VAZ3); assay: Calcium ion fluorescence (GCaMP6) assay, OR98a stable HEK293 cell line; assay type: cell-based; conditions: for OR98a response (VUAA1-normalized) at 1 μM / OR98a response (VUAA1-normalized) at 10 μM / OR98a response (VUAA1-normalized) at 100 μM: OR98a cell line; for OR98a response (VUAA1-normalized) at 1 μM: VOC concentration 1 μM; for OR98a response (VUAA1-normalized) at 10 μM: VOC concentration 10 μM; for OR98a response (VUAA1-normalized) at 100 μM: VOC concentration 100 μM; for DF norm AVERAGE OR98a: threshold 0.05, below shown as 0
T2 construct: expressed in transfected cells
T2 sequence (Q9VAZ3 1-397): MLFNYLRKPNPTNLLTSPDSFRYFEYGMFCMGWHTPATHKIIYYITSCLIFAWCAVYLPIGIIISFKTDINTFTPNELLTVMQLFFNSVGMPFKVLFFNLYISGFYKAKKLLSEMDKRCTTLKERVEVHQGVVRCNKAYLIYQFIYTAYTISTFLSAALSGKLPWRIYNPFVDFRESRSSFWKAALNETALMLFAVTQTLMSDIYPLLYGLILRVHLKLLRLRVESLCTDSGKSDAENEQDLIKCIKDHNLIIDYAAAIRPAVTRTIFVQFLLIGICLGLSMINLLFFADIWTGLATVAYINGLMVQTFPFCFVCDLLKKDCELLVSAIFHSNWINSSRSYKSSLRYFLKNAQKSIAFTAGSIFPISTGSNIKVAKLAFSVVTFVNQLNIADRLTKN
T2 sequence (Q9VNB5 1-486 partner): T1 sequence (Q9VNB5 1-486 partner)
Outline: as §1

[1] = ligand concentration 1 (unit not given)
[2] = ligand concentration 10 (unit not given)
[3] = ligand concentration 100 (unit not given)
[4] = HEK293, read-out: Average response
[5] = HEK293, read-out: OR98a Average response (VUAA1-normalized)

Compound	OR49b response (VUAA1-normalized) at 1 μM (Drosophila OR49b)	OR49b response (VUAA1-normalized) at 10 μM (Drosophila OR49b)	OR49b response (VUAA1-normalized) at 100 μM (Drosophila OR49b)	Average response (Drosophila OR49b; odorant cc. 1 µM)	Average response (Drosophila OR49b; odorant cc. 10 µM)	Average response (Drosophila OR49b; odorant cc. 100 µM)	DF norm AVERAGE OR49b (Drosophila OR49b; [1])	DF norm AVERAGE OR49b (Drosophila OR49b; [2])	DF norm AVERAGE OR49b (Drosophila OR49b; [3])	activation at 1 µM (Drosophila OR98a; [4]) [%]	activation at 10 µM (Drosophila OR98a; [4]) [%]	activation at 100 µM (Drosophila OR98a; [4]) [%]	activation at 1 µM (Drosophila OR98a; [5]) [%]	activation at 10 µM (Drosophila OR98a; [5]) [%]	OR98a response (VUAA1-normalized) at 1 μM (Drosophila OR98a)	OR98a response (VUAA1-normalized) at 10 μM (Drosophila OR98a)	OR98a response (VUAA1-normalized) at 100 μM (Drosophila OR98a)	DF norm AVERAGE OR98a (Drosophila OR98a; [1])	DF norm AVERAGE OR98a (Drosophila OR98a; [2])	DF norm AVERAGE OR98a (Drosophila OR98a; [3])	other results
CCCCCOC(C)=O [pentyl acetate]	0.08	0.00	0.06	0.08	0.0108	0.06	0.07954	0	0.06097	1.61	4	14	2	4	0.00	0.00	0.14	0	0	0.136	activation at 100 µM (Drosophila OR98a; [5]): 14%
OCCc1ccccc1 [phenethyl alcohol]	0.00	0.00	0.09	0.0257	0.00	0.09	0	0	0.09318	4	5	12	4	5	0.00	0.05	0.12	0	0.05123	0.122	activation at 100 µM (Drosophila OR98a; [5]): 12%
CCCOC(C)=O [propyl acetate]	0.00	0.00	0.00	0.00	0.00	0.014	0	0	0	10	8	11	10	8	0.10	0.08	0.11	0.09538	0.07848	0.1069	activation at 100 µM (Drosophila OR98a; [5]): 11%
C=C1CCC2(C(C)C)CC12 (stereo not drawn) [sabinene]	0.00	0.00	0.00	0.00	0.00	0.0368	0	0	0	0	10	2	–	–	0.00	0.10	0.00	0	0.1017	0	–
